# In patent US20130165368A1, “ANTIMICROBIAL COMPOUNDS” (priority 2010, published 2013):
# Read-outs that look alike come from different tables or passages of the source.
# Legend:
# Type in all cases: cell-based
# [1] = system: Escherichia coli; experiment: MIC agar dilution, micro-organism 1 (10418); conditions: Escherichia coli 10418
# Experimental: (§1) Throughout the period of testing the microbial strains were subcultured and incubated for 18-20 hours at 37° C. on a weekly basis. Horse blood agar plates were used to sustain the micro-organisms both prior to and throughout testing. The alkoxylated alkanols listed in Table II below were obtained (these are obtainable from Sigma-Aldrich Company Ltd, Dorset, England), each having a GC purity of at least 97%.
# (§2) Molar equivalent concentrations were used to allow comparison between compounds of differing molecular mass. Due to weighing difficulties, any compound in solid form was melted in a water bath prior to dilution. To make ten-times strength concentrations, which takes into account agar dilution, 0.0352 mmol of each compound was weighed into plastic universal bottles and 4 mL of sterile distilled water (SDW) was added. To produce a homogenous emulsion the universals were vortexed; once achieved the emulsions were serial diluted by adding 2 mL to 2 mL of SDW.
# (§3) Myristyl alcohol and lauryl alcohol were re-weighed and dissolved in 25 μL of the polar solvent 1-methyl-2-pyrrolidone (M6762; Sigma-Aldrich) in sterile glass universals due to an inability to achieve an even suspension. To maintain an even emulsion in the presence of SDW 37.5 μL of the non-ionic detergent Tween 20 (P1379, Sigma-Aldrich) was also added. 3.9375 mL of SDW was added to these, to create a 4 mL volume; they were vortexed and diluted as before.
# (§4) For every 100 mL of Isosensitest agar (IST) (CM0471; Oxoid, Basingstoke, England), 3.1 g of the IST powder was added to 100 mL SDW (as per manufacturer's instructions) and sterilised for 15 minutes at 121° C. Once sterilised, the molten agar was cooled to 50° C. in a water-bath. Subsequently 4.8 g of CCEY powder (BC2160; Bioconnections, Wetherby, England), also known as Brazier's medium, was added to 100 mL SDW for every 100 mL of agar needed. This was then sterilised for 15 minutes at 121° C. Once sterilised the molten agar was cooled to 50° C. in a water-bath and 4 mL of egg-yolk emulsion (S2073; TCS Biosciences Ltd, Buckingham, United Kingdom) and 1 mL of lysed defibrinated horse blood (HB035; TCS Biosciences Ltd, Buckingham, United Kingdom) were also added for every 100 mL needed. Horse blood lysis is achieved by dilution to half concentration with SDW; when fully lysed the mixture will turn dark red in colour.
# (§5) 18 mL agar was added to each universal and then poured into sterile Petri dishes. This step creates a 1/10 dilution resulting in agar plates of the required strength. Control plates for each set of strains were created by adding 18 mL of agar to 2 mL of SDW.
# (§6) Suspensions of each bacterial species were prepared with a density equal to that of a 0.5 McFarland standard using a densitometer. All suspensions were made using sterile distilled water and fresh 18-20 hour cultures. As a 0.5 McFarland standard contains 1.5×10^8 CFU/mL and the multipoint inoculators applies 1 μL spots of liquid, each bacterial suspension was diluted 1/15 (20 μL suspension to 280 μL sterile distilled water).
# (§7) Bacterial suspensions were prepared from fresh 18-24 hour cultures as previously described. 1 μL of each strain was inoculated onto all 100 agar plates containing a different chemical concentration and the 2 control plates. This was done using a multipoint inoculator which inoculates 20 strains per plate. All plates were incubated for 22 hours at 37° C. in aerobic conditions.
# (§8) Each plate was examined for bacterial growth after 22 and 48 hours, with each being incubated in between examinations. A positive result was recorded as growth of ≧10 colonies. A negative result was recorded as growth of <10 colonies as this is equivalent to 99.9% inhibition. The lowest concentration of chemical that inhibited growth was recorded as the MIC. The results are recorded in Table IV below, where the numbers are quoted in mmol/L. […]
# [2] = system: Klebsiella pneumoniae; experiment: MIC agar dilution, micro-organism 2 (9528); conditions: Klebsiella pneumoniae 9528
# Experimental: as §1, §2, §3, §4, §5, §6, §7
# (§9) Each plate was examined for bacterial growth after 22 and 48 hours, with each being incubated in between examinations. A positive result was recorded as growth of ≧10 colonies. A negative result was recorded as growth of <10 colonies as this is equivalent to 99.9% inhibition. The lowest concentration of chemical that inhibited growth was recorded as the MIC. The results are recorded in Table IV below, where the numbers are quoted in mmol/L.
# (§10) Further experiments have also been conducted to determine the MIC of a number of other compositions as follows. […]
# [3] = system: Providencia rettgeri; experiment: MIC agar dilution, micro-organism 3 (7475); conditions: Providencia rettgeri 7475
# Experimental: as §1, §2, §3, §4, §5, §6, §7, §8
# [4] = system: Enterobacter cloacae; experiment: MIC agar dilution, micro-organism 4 (11936); conditions: Enterobacter cloacae 11936
# Experimental: as §1, §2, §3, §4, §5, §6, §7, §9, §10
# [5] = system: Serratia marcescens; experiment: MIC agar dilution, micro-organism 5 (10211); conditions: Serratia marcescens 10211
# Experimental: as §1, §2, §3, §4, §5, §6, §7, §9, §10
# [6] = system: Salmonella typhimurium; experiment: MIC agar dilution, micro-organism 6 (74); conditions: Salmonella typhimurium 74
# Experimental: as §1, §2, §3, §4, §5, §6, §7, §9, §10
# [7] = system: Pseudomonas aeruginosa; experiment: MIC agar dilution, micro-organism 7 (10662); conditions: Pseudomonas aeruginosa 10662
# Experimental: as §1, §2, §3, §4, §5, §6, §7, §9, §10
# [8] = system: Yersinia enterocolitica; experiment: MIC agar dilution, micro-organism 8 (11176); conditions: Yersinia enterocolitica 11176
# Experimental: as §1, §2, §3, §4, §5, §6, §7, §9, §10
# [9] = system: Burkholderia cepacia; experiment: MIC agar dilution, micro-organism 9 (1222); conditions: Burkholderia cepacia 1222
# Experimental: as §1, §2, §3, §4, §5, §6, §7, §9, §10
# [10] = system: Acinetobacter baumannii; experiment: MIC agar dilution, micro-organism 10 (19606); conditions: Acinetobacter baumannii 19606
# Experimental: as §1, §2, §3, §4, §5, §6, §7, §9, §10
# [11] = system: Steptococcus pyogenes; experiment: MIC agar dilution, micro-organism 11 (8306); conditions: Steptococcus pyogenes 8306
# Experimental: as §1, §2, §3, §4, §5, §6, §7, §8
# [12] = system: Staphylococcus aureus (MRSA); experiment: MIC agar dilution, micro-organism 12 (11939); conditions: Staphylococcus aureus (MRSA) 11939
# Experimental: as §1, §2, §3, §4, §5, §6, §7, §8
# [13] = system: Staphylococcus aureus; experiment: MIC agar dilution, micro-organism 13 (6571); conditions: Staphylococcus aureus 6571
# Experimental: as §1, §2, §3, §4, §5, §6, §7, §8
# [14] = system: Staphylococcus epidermidis; experiment: MIC agar dilution, micro-organism 14 (11047); conditions: Staphylococcus epidermidis 11047
# Experimental: as §1, §2, §3, §4, §5, §6, §7, §8
# [15] = system: Listeria monocytogenes; experiment: MIC agar dilution, micro-organism 15 (11994); conditions: Listeria monocytogenes 11994
# Experimental: as §1, §2, §3, §4, §5, §6, §7, §8
# [16] = system: Enterococcus faecium; experiment: MIC agar dilution, micro-organism 16 (7171); conditions: Enterococcus faecium 7171
# Experimental: as §1, §2, §3, §4, §5, §6, §7, §8
# [17] = system: Enterococcus faecalis; experiment: MIC agar dilution, micro-organism 17 (775); conditions: Enterococcus faecalis 775
# Experimental: as §1, §2, §3, §4, §5, §6, §7, §8
# [18] = system: Bacillus subtilis; experiment: MIC agar dilution, micro-organism 18 (9372); conditions: Bacillus subtilis 9372
# Experimental: as §1, §2, §3, §4, §5, §6, §7, §8
# [19] = system: Candida albicans; experiment: MIC agar dilution, micro-organism 19 (90028); conditions: Candida albicans 90028
# Experimental: as §1, §2, §3, §4, §5, §6, §7, §8
# [20] = system: Candida glabrata; experiment: MIC agar dilution, micro-organism 20 (3943); conditions: Candida glabrata 3943
# Experimental: as §1, §2, §3, §4, §5, §6, §7, §8
# [21] = Salmonella enterica, 48 hrs, read-out: MIC
# [22] = Staphylococcus aureus, MRSA, 48 h, 48 hrs, read-out: MIC
# [23] = Staphylococcus aureus, 48 h, 48 hrs, read-out: MIC
# [24] = Nakaseomyces glabratus, 48 h, 48 hrs, read-out: MIC
compound,measurement,setting,value
"CCCCCCCCCCCCCCCCOCCO [C16E1, ceteth-1]",MIC,[1]; 22 hrs,>880 µM
same,MIC,[1]; 48 hrs,>880 µM
same,MIC,[2]; 22 hrs,>880 µM
same,MIC,[2]; 48 hrs,>880 µM
same,MIC,[3]; 22 hrs,>880 µM
same,MIC,[3]; 48 hrs,>880 µM
same,MIC,[4]; 22 hrs,>880 µM
same,MIC,[4]; 48 hrs,>880 µM
same,MIC,[5]; 22 hrs,>880 µM
same,MIC,[5]; 48 hrs,>880 µM
same,MIC,[6]; 22 hrs,>880 µM
same,MIC,[6]; 48 hrs,>880 µM
same,MIC,[7]; 22 hrs,>880 µM
same,MIC,[7]; 48 hrs,>880 µM
same,MIC,[8]; 22 hrs,>880 µM
same,MIC,[8]; 48 hrs,>880 µM
same,MIC,[9]; 22 hrs,>880 µM
same,MIC,[9]; 48 hrs,>880 µM
same,MIC,[10]; 22 hrs,>880 µM
same,MIC,[10]; 48 hrs,>880 µM
same,MIC,[11]; 22 hrs,>880 µM
same,MIC,[11]; 48 hrs,>880 µM
same,MIC,[12]; 22 hrs,>880 µM
same,MIC,[12]; 48 hrs,>880 µM
same,MIC,[13]; 22 hrs,>880 µM
same,MIC,[13]; 48 hrs,>880 µM
same,MIC,[14]; 22 hrs,>880 µM
same,MIC,[14]; 48 hrs,>880 µM
same,MIC,[15]; 22 hrs,>880 µM
same,MIC,[15]; 48 hrs,>880 µM
same,MIC,[16]; 22 hrs,>880 µM
same,MIC,[16]; 48 hrs,>880 µM
same,MIC,[17]; 22 hrs,>880 µM
same,MIC,[17]; 48 hrs,>880 µM
same,MIC,[18]; 22 hrs,>880 µM
same,MIC,[18]; 48 hrs,>880 µM
same,MIC,[19]; 22 hrs,>880 µM
same,MIC,[19]; 48 hrs,>880 µM
same,MIC,[20]; 22 hrs,880 µM
same,MIC,[20]; 48 hrs,880 µM
"OCCCCCCCCCCCCO [D, 1,12-dodecanediol, reference compound]",MIC,"[1]; 48 hrs, read-out: MIC",> 880 µM
same,MIC,"[2]; 48 hrs, read-out: MIC",> 880 µM
same,MIC,"[3]; 48 hrs, read-out: MIC",> 880 µM
same,MIC,"[4]; 48 hrs, read-out: MIC",> 880 µM
same,MIC,"[5]; 48 hrs, read-out: MIC",> 880 µM
same,MIC,[6]; [21],> 880 µM
same,MIC,"[7]; 48 hrs, read-out: MIC",> 880 µM
same,MIC,"[8]; 48 hrs, read-out: MIC",> 880 µM
same,MIC,"[9]; 48 hrs, read-out: MIC",> 880 µM
same,MIC,"[10]; 48 hrs, read-out: MIC",> 880 µM
same,MIC,"[11]; 48 h, 48 hrs, read-out: MIC",> 880 µM
same,MIC,[12]; [22],> 880 µM
same,MIC,[13]; [23],> 880 µM
same,MIC,"[14]; 48 hrs, read-out: MIC",> 880 µM
same,MIC,"[15]; 48 hrs, read-out: MIC",> 880 µM
same,MIC,"[16]; 48 hrs, read-out: MIC",> 880 µM
same,MIC,"[17]; 48 hrs, read-out: MIC",> 880 µM
same,MIC,"[18]; 48 hrs, read-out: MIC",> 880 µM
same,MIC,"[19]; 48 hrs, read-out: MIC",> 880 µM
same,MIC,[20]; [24],> 880 µM
"OCCOCCOCCCCCCCCCCCCOCCOCCO [DEG2, 3,6,19,22-tetraoxatetracosane-1,24-diol]",MIC,"[1]; 48 hrs, read-out: MIC",> 880 µM
same,MIC,"[2]; 48 hrs, read-out: MIC",880 µM
same,MIC,"[3]; 48 hrs, read-out: MIC",> 880 µM
same,MIC,"[4]; 48 hrs, read-out: MIC",> 880 µM
same,MIC,"[5]; 48 hrs, read-out: MIC",> 880 µM
same,MIC,[6]; [21],> 880 µM
same,MIC,"[7]; 48 hrs, read-out: MIC",> 880 µM
same,MIC,"[8]; 48 hrs, read-out: MIC",> 880 µM
same,MIC,"[9]; 48 hrs, read-out: MIC",> 880 µM
same,MIC,"[10]; 48 hrs, read-out: MIC",> 880 µM
same,MIC,"[11]; 48 h, 48 hrs, read-out: MIC",880 µM
same,MIC,[12]; [22],> 880 µM
same,MIC,[13]; [23],> 880 µM
same,MIC,"[14]; 48 hrs, read-out: MIC",> 880 µM
same,MIC,"[15]; 48 hrs, read-out: MIC",> 880 µM
same,MIC,"[16]; 48 hrs, read-out: MIC",> 880 µM
same,MIC,"[17]; 48 hrs, read-out: MIC",> 880 µM
same,MIC,"[18]; 48 hrs, read-out: MIC",> 880 µM
same,MIC,"[19]; 48 hrs, read-out: MIC",> 880 µM
same,MIC,[20]; [24],> 880 µM
